Holding throughout (format): binding
In test [1] the target is T1, recombinant lcFABP (Luciola cerata, UniProt G1FKW0). Nature of the test: ANS fluorescence titration of recombinant lcFABP. As to the method:
(§1) The binding property of lcFABP to fatty acids was analyzed by a fluorescence displacement assay using 1-anilinonaphthalene-8-sulfonic acid (ANS) as fluorescent probe. This assay utilizes ANS's property of emitting intense fluorescence when bind to the hydrophobic region of protein non-covalently. The displacement of ANS from ligand binding site of FABPs by fatty acid or other hydrophobic ligand will result in the reduction of fluorescence. In this way, the apparent inhibition constants (Ki) of fatty acid or hydrophobic ligand to FABPs can be measured, [25]-[27].
Recombinant lcFABP was overexpressed in E. coli cells, and purified by a two-step chromatography for ligand binding assay. […]
Fatty acid binding of recombinant lcFABP was assessed by a competitive displacement assay using fluorescence probe ANS as described previously, [27]. F7000 fluorescence spectrophotometer (Hitachi, Tokyo, Japan) was used for measuring the ANS fluorescence signal at the emission 470 nm following excitation at 375 nm. […] The apparent dissociation constant (Kd) of ANS-lcFABP complex was measured by nonlinear regression analysis of the binding data as described previously. To evaluated the binding of fatty acids to lcFABP, 2 µM lcFABP was pre-equilibrated with 40 µM ANS for 2 min in assay buffer, and then titrated with increasing concentrations of fatty acids until the reduction of fluorescence became saturate. […]

In test [2] the target is T1, recombinant lcFABP. Nature of the test: fluorescence (ANS) displacement assay with fatty acids. To be noted: for binding strength of lcFABP to ligand (in words): ANS displacement assay, recombinant lcFABP. The procedure:
as §1
Recombinant lcFABP was overexpressed in E. coli cells, and purified by a two-step chromatography for ligand binding assay. […] After that, the binding of fatty acid to lcFABP was examined by a competitive displacement titration. […] Conversely, the lcFABP binds moderately to saturated dodecanoic acid (C12:0), monounsaturated oleic acid (C18:1) and polyunsaturated arachidonic acid (C20:4), and poorly to the saturated capric acid (C10:0). These binding studies confirmed that the recombinant lcFABP is a functional protein for fatty acids binding as other reported FABPs, [16].
Fatty acid binding of recombinant lcFABP was assessed by a competitive displacement assay using fluorescence probe ANS as described previously, [27]. F7000 fluorescence spectrophotometer (Hitachi, Tokyo, Japan) was used for measuring the ANS fluorescence signal at the emission 470 nm following excitation at 375 nm. All measurements were carried out in an assay buffer contained 50 mM sodium phosphate, pH 7.5, 140 mM KCl, 5 mM β-ME at 25°C under a dim light. ANS and various fatty acids were prepared freshly in absolute ethanol before used. To evaluate ANS-lcFABP interaction, 2 µM lcFABP in a final volume of 2 ml assay buffer was titrated with 1∼2 ul of ANS from a initial concentration of 0 µM to 80 µM. The apparent dissociation constant (Kd) of ANS-lcFABP complex was measured by nonlinear regression analysis of the binding data as described previously. To evaluated the binding of fatty acids to lcFABP, 2 µM lcFABP was pre-equilibrated with 40 µM ANS for 2 min in assay buffer, and then titrated with increasing concentrations of fatty acids until the reduction of fluorescence became saturate. The apparent inhibition constant (Ki) of each fatty acid to ANS-lcFABP complex was calculated from the displacement data as described previously. All binding experiments were repeated at least three times.

Test [3] addresses T1, recombinant lcFABP. Nature of the test: time-dependent ANS displacement assay with D-luciferin and palmitic acid (Fig. S2). As to the method: In this study, we also investigated whether lcFABP could bind firefly luciferin using ANS displacement assay (Fig. S2).
Fluorescence change was recorded after successively adding lcFABP (until final concentration become 2 µM at 100 s), D-luciferin (Luc; 1 µM at 200 s and 2 µM at 300 s) or palmitic acid (PA; 1 µM at 200 s and 2 µM at 300 s), and the competitive palmitic acid (2 µM at 400 s) or D-luciferin (2 µM at 400 s) to into the ANS (40 µM) containing buffer using time-dependent model. The results have been subtracted of D-luciferin's intrinsic-fluorescence. All experiments are monitored under a detected wavelength of Ex: 370 nm and Em: 450 nm to reduce the interference of D-luciferin intrinsic-fluorescence to the assay. (TIF) Click here for additional data file.

Where [4] appears, read: apparent inhibition constant, 2 µM lcFABP pre-equilibrated with 40 µM ANS, pH 7.5, 25°C, at least three repeats, read-out: Ki.

Data on 9 compounds can be found in article PMC3248459, “A Photocytes-Associated Fatty Acid-Binding Protein from the Light Organ of Adult Taiwanese Firefly, Luciola cerata” (PLoS ONE, 2011).

Each structure is given as a SMILES string. Where two headings read alike, the source gives them in different places.

T1 sequence (G1FKW0 entry or part of it): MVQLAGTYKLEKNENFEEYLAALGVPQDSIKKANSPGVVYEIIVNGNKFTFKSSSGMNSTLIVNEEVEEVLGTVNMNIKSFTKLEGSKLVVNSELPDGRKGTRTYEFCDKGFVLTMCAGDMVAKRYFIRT

With `O=S(=O)(O)c1cccc2cccc(Nc3ccccc3)c12` [ANS, 1-anilinonaphthalene-8-sulfonic acid], the Kd (commonly a measure of binding affinity in units of concentration) in test [1] was 11200 ± 1500 nM.
For the compound `CCCCC/C=C\C/C=C\C/C=C\C/C=C\CCCC(=O)O` [Arachidonic acid], in test [2], the Ki turned out to be 1590 ± 160 nM and the “binding strength of lcFABP to ligand (in words)” value (“binding strength of lcFABP” for short) is recorded as “moderately”.
On to `CCCCCCCCCC(=O)O` [Capric acid], for which the “binding strength of lcFABP” value in test [2] is listed as “poorly”. Also, in test [2] (setting [4]), the Ki came to 118000 ± 6240 nM.
As to `CCCCCCCCCCCC(=O)O` [Dodecanoic acid], in test [2], the Ki came out at 1670 ± 150 nM and the “binding strength of lcFABP” value was “moderately”.
Turning to `CCCCCCCCCCCCCC(=O)O` [Myristic acid], in test [2], the Ki was found to be 640 ± 140 nM and the “binding strength of lcFABP” value is “strongly”.
The corresponding values for `CCCCCCCC/C=C\CCCCCCCC(=O)O` [Oleic acid] are 1000 ± 170 nM and “moderately”.
For `CCCCCCCCCCCCCCCC(=O)O` [Palmitic acid], in test [2], the Ki turned out to be 550 ± 120 nM and the “binding strength of lcFABP” value is listed as “strongly”. Also, the reduction of fluorescence in test [3] (2 µM lcFABP, 40 µM ANS, ligand added at 1-2 µM, luciferin intrinsic fluorescence subtracted, Ex 370 nm, Em 450 nm) is reported as at most 40%.
`CCCCCCCCCCCCCCCCCC(=O)O` [Steric acid]: in test [2], the “binding strength of lcFABP” value is on record as “strongly”. The Ki in test [2] (setting [4]) was determined as 250 ± 10 nM.
As to `O=C(O)[C@H]1CSC(c2nc3ccc(O)cc3s2)=N1` [luciferin, D-luciferin], in test [3], the “interaction of lcFABP with ligand (in words)” value is listed as “weakly” and the reduction of fluorescence result is given as “about 12%”.
